“And” between values parts separate entries of the source, which are not always exact repeats. Equal entries are not always repeated.
Key:
[1] = tested on: kidney tissues of treated or untreated rats; assay: Real-time qRT-PCR of signature amplicons, validation stage, labeled and un-labeled samples (Table 23); details: for H31883_DB71_seg13 normalized qRT-PCR result / MUSCYCG1R_DB81_seg19-20 normalized qRT-PCR result / W41270_DB81_seg11 normalized qRT-PCR result: un-labeled sample, one line per animal; for AI045075_DB71_seg6 normalized qRT-PCR expression (Interferon stimulated exonuclease 20 (ISG20) transcript) / H31883_DB71_seg13 normalized qRT-PCR expression (Cyclin-G1 (CCNG1) transcript) / MUSCYCG1R_DB81_seg19-20 normalized qRT-PCR expression / W41270_DB81_seg11 normalized qRT-PCR expression (tumor necrosis factor receptor superfamily, member 12a transcript) / W64472_DB81_seg2 normalized qRT-PCR expression (Interferon stimulated exonuclease 20 (ISG20) transcript) / W83813_DB81_seg27 normalized qRT-PCR expression: un-labeled samples, kidney of individual male/female rats
From the text: New primers were designed for part of the transcripts, and new conditions for several qRT-PCR reactions were used, as described below.
The measurements were normalized in two steps. First—according to the house-keeping-genes normalization factor, and second—each plate was normalized according to ratio of the intensity measurements from samples appearing in it and in the shuffled (normalization) plate (Table 25 provides the plates details and the section “Inter-Plate Normalization” provides details of the normalization process). The normalized values were further scaled by a factor, for ease of viewing.
RT was prepared and qRT-PCR performed and analyzed as described hereinabove. qRT-PCR was performed for the four genes comprising the signature of the discovery stage described in Table 13. Two amplicons were tested for each gene—one representing the wild-type transcript, and another representing an alternative splice variant. Each amplicon was measured using the labeled samples described in Table 9 herein, as well as the un-labeled samples. Samples from both groups (labeled and un-labeled) were tested in seven 96 well plates as described in Table 25. In order to correct possible run to run variations, the following controls were added: 1. several samples were repeated in all 96 wells plates; 2. control shuffled plate was designed which combined samples from all seven test plates.
To account for possible differences of qRT-PCR measurements between the different plates due to experimental artifacts, a normalization plate was planned. This plate, designated hereinabove ‘shuffled plate’, contained samples from all other plates. Real Time PCR was performed on this plate using the primers appropriate for all candidates in tables 26 and 27. For each other plate (plates 1-7 above) and each amplicon, the samples appearing also in the shuffled plate were examined—the ratio between the transcript abundance as measured in the plate to the abundance as measured in the shuffled plate was calculated, outliers were manually removed, and the geometric mean of the left ratios was taken as an additional multiplicative normalization factor for the plate and amplicon.

kidney = assay: Renal histopathology of rats treated with T1, T2, T3; type: in vivo, rat; details: rat, in vivo
Protocol: Each group consisted of 6 male and 6 female rats. The additional groups consisted of 6 males and 6 female rats treated with control compound for a single day and for five days, as described in Table 24.
T2 “no observed effect level” (NOEL, i.e., the maximal dose at which no toxic effect is visible) is 15 mg/kg.
At autopsy, both kidneys of each animal were removed and each kidney was cross sectioned. Half of each kidney was sent to RNA extraction and analysis.

[2] = Ds1, Day1, oral gavage, female rat kidney
[3] = Ds1, Day1, oral gavage, male rat kidney
[4] = Ds1, Day5, oral gavage, female rat kidney
[5] = Ds1, Day5, oral gavage, male rat kidney
[6] = Ds2, Day1, oral gavage, female rat kidney
[7] = Ds2, Day1, oral gavage, male rat kidney
[8] = Ds2, Day5, oral gavage, female rat kidney
[9] = Ds2, Day5, oral gavage, male rat kidney

H31883_DB71_seg13 normalized qRT-PCR result [1, 2]: 0.394 and 0.356 and 0.205 | MUSCYCG1R_DB81_seg19-20 normalized qRT-PCR result [1, 2]: 0.85 and 1.252 and 0.37 | W41270_DB81_seg11 normalized qRT-PCR result [1, 2]: 0.859 and 1.064 and 0.507 | H31883_DB71_seg13 normalized qRT-PCR result [1, 3]: 0.898 and 0.512 and 0.989 and 0.789 | MUSCYCG1R_DB81_seg19-20 normalized qRT-PCR result [1, 3]: 0.918 and 0.845 and 1.025 and 0.713 | W41270_DB81_seg11 normalized qRT-PCR result [1, 3]: 0.567 and 1.106 and 1.844 and 0.808 | H31883_DB71_seg13 normalized qRT-PCR result [1, 4]: 0.701 and 1.155 and 0.791 and 1.096 | MUSCYCG1R_DB81_seg19-20 normalized qRT-PCR result [1, 4]: 0.501 and 0.727 and 0.928 and 1.021 | W41270_DB81_seg11 normalized qRT-PCR result [1, 4]: 0.479 and 0.546 and 0.601 and 0.677 | H31883_DB71_seg13 normalized qRT-PCR result [1, 5]: 1.054 and 0.818 and 0.72 | MUSCYCG1R_DB81_seg19-20 normalized qRT-PCR result [1, 5]: 1.285 and 1.133 and 1.175 | W41270_DB81_seg11 normalized qRT-PCR result [1, 5]: 0.88 and 0.8 and 0.499 | H31883_DB71_seg13 normalized qRT-PCR result [1, 6]: 0.874 and 0.929 and 1.454 | MUSCYCG1R_DB81_seg19-20 normalized qRT-PCR result [1, 6]: 1.132 and 1.211 and 0.575 | W41270_DB81_seg11 normalized qRT-PCR result [1, 6]: 0.847 and 1.043 and 1.227 | H31883_DB71_seg13 normalized qRT-PCR result [1, 7]: 0.276 and 0.164 and 0.218 and 0.211 | MUSCYCG1R_DB81_seg19-20 normalized qRT-PCR result [1, 7]: 1.479 and 0.566 and 1.063 and 1.117 | W41270_DB81_seg11 normalized qRT-PCR result [1, 7]: 2.291 and 1.042 and 1.597 and 1.35 | H31883_DB71_seg13 normalized qRT-PCR result [1, 8]: 0.81 and 0.711 and 1.599 and 1.018 | MUSCYCG1R_DB81_seg19-20 normalized qRT-PCR result [1, 8]: 0.666 and 0.977 and 1.436 and 0.58 | W41270_DB81_seg11 normalized qRT-PCR result [1, 8]: 0.587 and 0.623 and 1.24 and 0.704 | H31883_DB71_seg13 normalized qRT-PCR result [1, 9]: 1.103 and 0.911 | MUSCYCG1R_DB81_seg19-20 normalized qRT-PCR result [1, 9]: 0.765 and 1.037 | W41270_DB81_seg11 normalized qRT-PCR result [1, 9]: 0.494 and 3.181 | AI045075_DB71_seg6 normalized qRT-PCR expression (Interferon stimulated exonuclease 20 (ISG20) transcript) ([1]; dose Ds1, Day1, oral gavage): 0.354 and 1.103 and 0.678 and 0.596 | W64472_DB81_seg2 normalized qRT-PCR expression (Interferon stimulated exonuclease 20 (ISG20) transcript) ([1]; dose Ds1, Day1, oral gavage): 0.483 and 1.31 and 1.296 and 0.52 | W83813_DB81_seg27 normalized qRT-PCR expression ([1]; dose Ds1, Day1, oral gavage): 0.322 and 0.663 and 0.497 and 0.402 | AI045075_DB71_seg6 normalized qRT-PCR expression (Interferon stimulated exonuclease 20 (ISG20) transcript) ([1]; dose Ds1, Day5, oral gavage): 0.615 and 1.082 and 1.102 and 1.032 | W64472_DB81_seg2 normalized qRT-PCR expression (Interferon stimulated exonuclease 20 (ISG20) transcript) ([1]; dose Ds1, Day5, oral gavage): 0.852 and 1.176 and 1.034 and 0.822 | W83813_DB81_seg27 normalized qRT-PCR expression ([1]; dose Ds1, Day5, oral gavage): 0.754 and 1.146 and 1.388 and 0.659 | AI045075_DB71_seg6 normalized qRT-PCR expression (Interferon stimulated exonuclease 20 (ISG20) transcript) ([1]; dose Ds2, Day1, oral gavage): 0.444 and 1.146 and 0.527 | W64472_DB81_seg2 normalized qRT-PCR expression (Interferon stimulated exonuclease 20 (ISG20) transcript) ([1]; dose Ds2, Day1, oral gavage): 0.659 and 1.566 and 0.602 | W83813_DB81_seg27 normalized qRT-PCR expression ([1]; dose Ds2, Day1, oral gavage): 0.67 and 0.137 and 0.761 | AI045075_DB71_seg6 normalized qRT-PCR expression (Interferon stimulated exonuclease 20 (ISG20) transcript) ([1]; dose Ds2, Day5, oral gavage): 0.37 and 1.451 and 0.53 | W64472_DB81_seg2 normalized qRT-PCR expression (Interferon stimulated exonuclease 20 (ISG20) transcript) ([1]; dose Ds2, Day5, oral gavage): 0.368 and 0.779 and 0.656 | W83813_DB81_seg27 normalized qRT-PCR expression ([1]; dose Ds2, Day5, oral gavage): 0.729 and 0.728 and 0.933
Compound: Nc1nc2ccc(OC(F)(F)F)cc2s1 [T3, 6-(trifluoromethoxy)benzothiazol-2-amine]
H31883_DB71_seg13 normalized qRT-PCR expression (Cyclin-G1 (CCNG1) transcript) ([1]; dose Ds1, Day1, oral gavage): 0.919 and 0.764 and 0.611 and 0.663 and 0.569 and 1.366 and 0.637 and 0.949 and 0.7 and 0.582 and 1.074 | MUSCYCG1R_DB81_seg19-20 normalized qRT-PCR expression ([1]; dose Ds1, Day1, oral gavage): 0.96 and 0.232 and 0.183 and 1.044 and 1.137 and 0.132 and 0.134 and 0.767 and 0.441 and 0.114 and 0.726 | W41270_DB81_seg11 normalized qRT-PCR expression (tumor necrosis factor receptor superfamily, member 12a transcript) ([1]; dose Ds1, Day1, oral gavage): 0.64 and 0.457 and 0.575 and 0.374 and 0.468 and 0.465 and 0.344 and 0.568 and 0.551 and 0.282 and 0.649 | H31883_DB71_seg13 normalized qRT-PCR expression (Cyclin-G1 (CCNG1) transcript) ([1]; dose Ds1, Day5, oral gavage): 1.65 and 1.003 and 1.338 and 0.576 and 1.082 and 1.358 and 1.585 and 0.946 and 1.094 and 1.3 and 1.301 | MUSCYCG1R_DB81_seg19-20 normalized qRT-PCR expression ([1]; dose Ds1, Day5, oral gavage): 0.649 and 0.716 and 1.035 and 1.226 and 0.857 and 0.625 and 0.525 and 0.398 and 1.413 and 0.62 and 0.638 | W41270_DB81_seg11 normalized qRT-PCR expression (tumor necrosis factor receptor superfamily, member 12a transcript) ([1]; dose Ds1, Day5, oral gavage): 0.722 and 1.807 and 0.483 and 0.899 and 0.832 and 1.015 and 0.699 and 0.495 and 1.093 and 0.482 and 1.957 | H31883_DB71_seg13 normalized qRT-PCR expression (Cyclin-G1 (CCNG1) transcript) ([1]; dose Ds2, Day1, oral gavage): 0.802 and 0.969 and 0.632 and 1.119 and 0.923 and 0.767 and 1.13 and 1.47 and 0.662 and 0.643 | MUSCYCG1R_DB81_seg19-20 normalized qRT-PCR expression ([1]; dose Ds2, Day1, oral gavage): 0.92 and 0.203 and 0.275 and 2.153 and 0.29 and 0.152 and 1.45 and 2.313 and 0.798 and 0.158 | W41270_DB81_seg11 normalized qRT-PCR expression (tumor necrosis factor receptor superfamily, member 12a transcript) ([1]; dose Ds2, Day1, oral gavage): 0.49 and 0.347 and 0.174 and 0.912 and 0.418 and 0.359 (2×) and 0.667 and 0.956 and 0.897 | H31883_DB71_seg13 normalized qRT-PCR expression (Cyclin-G1 (CCNG1) transcript) ([1]; dose Ds2, Day5, oral gavage): 0.942 and 0.718 and 1.058 and 1.087 and 2.34 and 1.259 and 0.705 and 0.846 and 0.949 | MUSCYCG1R_DB81_seg19-20 normalized qRT-PCR expression ([1]; dose Ds2, Day5, oral gavage): 1.567 and 0.875 and 1.708 and 1.024 and 1.119 and 1.475 and 1.004 and 0.658 and 1.003 | W41270_DB81_seg11 normalized qRT-PCR expression (tumor necrosis factor receptor superfamily, member 12a transcript) ([1]; dose Ds2, Day5, oral gavage): 0.762 and 1.066 and 1.119 and 0.472 and 0.766 and 0.944 and 0.363 and 0.605 and 0.43 | Renal damage (kidney): no renal damage after up to 35 days of treatment
